# Source: US20230240290A1, “USE OF (Z)-3-HEXENYL ESTERS AND METHOD FOR PROTECTING PLANTS AGAINST PESTS” (UNIVERSITAT POLITÈCNICA DE VALÈNCIA, priority 2020, published 2023)
# “Also recorded” adds a separate entry of the source.
# Tests used:
# [1] = system: SI-PI-I (marker for plant proteinase inhibitors); test: Transcriptional response of SI-PI-I in tomato plants exposed to volatiles (laboratory); type: in vivo, Solanum lycopersicum cv. Moneymaker; conditions: intact tomato plants exposed 24 h; filter paper, 1:10,000 ester:methanol; n=8
# Experimental: (§1) Moneymaker tomato plants were used. Two weeks after seed germination, the seedlings were individually transplanted into pots (8×8×8 cm). The plants were kept at 25±2° C., with a constant relative humidity of 65%±5% and a 14:10 h (light:dark) photoperiod. Tomato plants that had not received any pesticide treatment at four weeks of age (about 20 cm tall) were used. All volatiles used were obtained from Sigma-Aldrich (St. Louis, Mo., USA). Each volatile was exposed by using a 2×2 cm piece of filter paper on which 10 μl of a solution containing the corresponding volatile at a concentration of 1:10,000 [(Z)-3-hexenyl ester:methanol] was impregnated as an emitting source of the corresponding volatile (Pérez-Hedo, M. et al. Biocontrol, 63: 203-213 (2018)).
# (§2) To activate a plant, two pieces of filter paper impregnated with the volatile were placed at the bottom of a 30×30×30 cm plastic cage (BugDorm-1 Insect Tents; MegaView Science Co., Ltd, Taichung, Taiwan) into which the plant was introduced. A control treatment was carried out in which the two pieces of filter paper were impregnated with 10 μl of methanol. Eight repetitions per treatment were performed. The plants of the treatments were kept exposed to the volatile without disturbing for 24 hours in separate and isolated climatic chambers to avoid any interference from the volatiles and were kept at 25±2° C., 65±10% RH, and a 14:10 h (L:D) photoperiod. […]
# (§3) The methodology followed for extracting and quantifying gene expression was described by Pérez-Hedo et al. Journal of Pest Science 3: 543-554 (2015). The primers used were forward primer: 5′-[…]-3′ (SEQ ID NO: 1) and reverse primer: 5′-[…]-3′ (SEQ ID NO: 2) for the quantification of PR1, forward primer: 5′-[…]-3′ (SEQ ID NO: 3) and reverse primer: 5′-[…]-3′ (SEQ ID NO: 4) for SI-PI-I, and forward primer: 5′-[…]-3′ (SEQ ID NO: 5) and reverse primer: 5′-[…]-3′ (SEQ ID NO: 6) for the SI-PI-II gene. […]
# [2] = system: Encarsia formosa; test: Y-tube olfactometer preference, exposed vs intact tomato plants; type: in vivo; conditions: plants exposed 24 h vs intact plants
# Excerpt: (§4) It was studied whether the defensive activation achieved by exposure to (Z)-3-hexenyl propanoate could affect repellency and/or attraction in herbivores that attack tomatoes, the whitefly Bemisia tobaci (Gennadius) (Hemiptera: Aleyrodidae), the thrip Frankliniella occidentalis Pergande (Thysanoptera: Thripidae), the red spider Tetranychus urticae Koch (Acari: Tetranychidae) and the tomato borer, Tuta absoluta (Meyrick) (Lepidoptera: Gelechiidae), and in a natural enemy that has been used as a model organism in this crop, the parasitoid Encarsia formosa Gahan (Hymenoptera: Aphelinidae).
# (§5) The last instar nymphs of B. tabaci and the pupae of E. formosa were provided by Koppert Biological Systems, S. L. (Águilas, Murcia, Spain). The recently emerged B. tabaci adults (less than 2 days old) were released into tomato plants inside 60×60×60 cm plastic cages (BugDorm-2) and placed in a climatic chamber at 25±2° C., 65±10% RH and a 14:10 h (L:D) photoperiod in IVIA. Five-day-old B. tabaci adults were used in all the experiments. In the case of E. formosa, the pupae were placed in a Petri dish 9 cm in diameter and allowed to emerge under ambient laboratory conditions (25±2° C.), with a small drop of honey as food. E. formosa females less than two days old were used in all the experiments. F. occidentalis adults came from a brood kept in captivity established in the Valencian Institute of Agrarian Research (Instituto Valenciano de Investigaciones Agrarias, IVIA) in 2010, originally from Campo de Cartagena (Murcia, Spain). The thrips brood was kept in bean pods (Phaseolus vulgaris L.; Fabales: Fabaceae) under the same conditions described above. All the F. occidentalis females used for experimentation were less than five days old. T. urticae adults were obtained from a colony established in IVIA in 2011, which initially came from clementines located in La Plana (Castelló, Spain). The mites were kept on tomato plants in a climatic chamber under the same conditions described above. T. absoluta females were obtained from colonies on tomatoes maintained in a greenhouse at IVIA at 25±4° C., 60±15% RH, and under a natural photoperiod. Newly emerged adult females less than 5 days old were used in all the assays.
# (§6) To assess the preference of F. occidentalis, B. tabaci, T. urticae, T. absoluta and E. formosa for tomato plants that were previously exposed for 24 h to (Z)-3-HP relative to intact plants, a Y-shaped olfactometer was used. The plants were exposed to both volatiles as described above using the pieces of filter paper. The olfactometer (Analytical Research Systems, Gainesville, Fla.) consisted of a 2.4 cm in diameter Y-shaped glass tube with a 13.5 cm long base and two arms, each 5.75 cm long. Both side arms were connected via high-density polyethylene (HDPE) tubing to two identical glass jars (5-liter volume), each of which was connected to an air pump that produced a unidirectional humidified airflow at 150 ml/min (Pérez-Hedo et al. Journal of Pest Science 3: 543-554 (2015)).
# (§7) For each species, a female was individually introduced into the inlet tube of the olfactometer and observed until she had walked at least 3 cm down one of the arms of choice or until 15 minutes had elapsed. A total of 40 valid replicates were recorded for each species for each pair of odor sources. Each individual was tested only once. […] After recording five responses, the Y-tube was rinsed with soapy water, cleaned with acetone, and allowed to dry for 5 minutes. […]
# [3] = system: Tuta absoluta; test: as above; type: in vivo; conditions: plants exposed 24 h vs intact plants
# Excerpt: as §4, §5, §6, §7
# [4] = system: Frankliniella occidentalis; test: as above; type: in vivo; conditions: plants exposed 24 h vs intact plants
# Excerpt: as §4, §5, §6, §7
# [5] = system: Bemisia tabaci; test: as above; type: in vivo; conditions: plants exposed 24 h vs intact plants
# Excerpt: as §4, §5, §6, §7
# [6] = system: Tetranychus urticae; test: as above; type: in vivo; conditions: plants exposed 24 h vs intact plants
# Excerpt: as §4, §5, §6, §7
# [7] = system: PR1 (marker gene for the salicylic acid signaling pathway); test: Transcriptional response of defense gene PR1 in tomato plants exposed to volatiles (laboratory); type: in vivo, Solanum lycopersicum cv. Moneymaker; conditions: intact tomato plants exposed 24 h; filter paper, 1:10,000 ester:methanol; n=8
# Experimental: as §1, §2, §3
structure (smiles),measurement,setting,value
CC/C=C\CCOC(=O)CC [(Z)-3-hexenyl propanoate],Transcriptional response of SI-PI-I compared to the control,[1],significantly overexpressed
same,Response of E. formosa females to exposed tomato plants,[2],more attractive
same,Response of T. absoluta females to exposed tomato plants,[3],repel; also recorded: repellent
same,Response of F. occidentalis females to exposed tomato plants,[4],repel; also recorded: repellent
same,Response of B. tabaci females to exposed tomato plants,[5],repel; also recorded: repellent
same,Response of T. urticae females to exposed tomato plants,[6],no preference
same,Transcriptional response of PR1 compared to the control,[7],significantly overexpressed
